The values that follow come from patent US7319094B2, “Increased and sustained in vivo gene expression using a nucleic acid, histone and amphipathic compound composition” (Rhode Island Hospital, priority 2001, dated 2008).

Entries after “also recorded” stand apart in the source; their conditions may differ.

Common to all, as to type: cell-based, human
In series [1] the test system is nitric oxide synthase-3 (NOS-3). Kind of series: NOS-3 expression, Western blot. Particulars: PNET2 cells induced to express AD7c-NTP; relative to PDGF-stimulated cultures. The source says:
Standard Western blot assays wew used to measure cellular levels of p53, Bcl-2, p21/Waf1, phospho-tau, tau, c-fos, NTP, and activated (phosphorylated) forms of Erk mitogen activated protein (MAP) kinase, amino-terminal c-jun-activated kinase (pJNK), and p38/HOG1. Immunoprecipitation followed by Western blot analysis was used to measure p85 subunit associated with IRS1. For Western blot analysis of p53 Bcl-2, phospho-tau, tau, c-fos, and NTP, the cells were lysed in ice cold radioimmunoprecipitation assay (RIPA) buffer supplemented with protease and phosphatase inhibitors. For the immunoprecipitation studies, Western blot analysis of phospho-Erk, pJNK, and p38, and the PI3 kinase assays, the cells were harvested in Triton lysis buffer supplemented with protease and phosphatase inhibitors. Protein concentrations were measured using the BCA assay (Pierce, Rockford, Ill.). Samples containing 60 μg of protein were fractionated by sodium dodecyl sulfate polyacrylamide gel electrophoresis (SDS-PAGE), then transferred to PVDF membranes, and analyzed by Western immunoblotting. Immunoreactivity was detected with horseradish peroxidase conjugated secondary IgG and PicoWest enhanced chemiluminescence reagents (Pierce Chemical Company, Rockford, Ill.). CAT activity was measured using known methods. […]

The subject of series [2] is PNET2 cells induced to express AD7c-NTP. As to the kind of experiment: Crystal violet viability assay. The settings on record: 3 mM IPTG-induced AD7c-NTP; relative to un-induced FCS-stimulated and IPTG-induced NGF or PDGF stimulated cultures. As for the experimental part:
(§1) To examine the effects of different growth factors on AD7c-NTP expression (and over-expression), the cells were serum-starved for 16 hours, after which IPTG (1-5 mM) was added to the medium. Four hours later, the cells were stimulated with insulin (50 nM), IGF-1 (5 ng/ml), NGF ([…]), or platelet-derived growth factor (PDGF; 5 ng/ml) for 24-72 hours. The cells were analyzed for morphological changes, viability, AD7c-NTP immunoreactivity, and expression of pro-apoptosis genes, survival genes, and phospho-tau.
Viability was measured by a standard crystal violet assay. Crystal violet dye labels only viable cells. The assays were performed with cells seeded into 96-well plates at a density of 2×10^4 cells/well. The absorbances were measured using a Spectracount plate reader (Packard, Meriden, Conn.). The crystal violet absorbances increased linearly with cell density between 10^4 and 5×10^5 cells/well.
Cells were serum-starved for 24 hours. However, since several hours of IPTG stimulation were required to induce AD7c-NTP gene expression or CAT activity, IPTG (3 mM) was added to the cultures after 16 hours of serum-starvation, i.e. 8 hours prior to growth factor stimulation. […]
Increased cell loss associated with insulin-stimulation and AD7c-NTP over-expression Cell viability was quantified using the microculture Crystal violet assay with cells seeded into 96-well plates. […]

Another series has as its system Bcl-2. As to the kind of experiment: Bcl-2 expression, Western blot / MICE assay. Particulars: PNET2 cells induced to express AD7c-NTP, growth factor stimulated. The source says:
(§2) Standard Western blot assays wew used to measure cellular levels of p53, Bcl-2, p21/Waf1, phospho-tau, tau, c-fos, NTP, and activated (phosphorylated) forms of Erk mitogen activated protein (MAP) kinase, amino-terminal c-jun-activated kinase (pJNK), and p38/HOG1. Immunoprecipitation followed by Western blot analysis was used to measure p85 subunit associated with IRS1. For Western blot analysis of p53 Bcl-2, phospho-tau, tau, c-fos, and NTP, the cells were lysed in ice cold radioimmunoprecipitation assay (RIPA) buffer supplemented with protease and phosphatase inhibitors. For the immunoprecipitation studies, Western blot analysis of phospho-Erk, pJNK, and p38, and the PI3 kinase assays, the cells were harvested in Triton lysis buffer supplemented with protease and phosphatase inhibitors. Protein concentrations were measured using the BCA assay (Pierce, Rockford, Ill.). Samples containing 60 μg of protein were fractionated by sodium dodecyl sulfate polyacrylamide gel electrophoresis (SDS-PAGE), then transferred to PVDF membranes, and analyzed by Western immunoblotting. Immunoreactivity was detected with horseradish peroxidase conjugated secondary IgG and PicoWest enhanced chemiluminescence reagents (Pierce Chemical Company, Rockford, Ill.). CAT activity was measured using known methods.
(§3) The MICE assay is known in the art (e.g., as described by de la Monte et al., 1999, Biotechniques 26:107301076). The assay is a rapid and sensitive method for quantifying immunoreactivity in 96-well micro-cultures and combines the advantages of the enzyme-linked immunosorbant assay with immunocytochemical staining to permit sensitive in situ quantification of protein expression with values normalized to cell density. […] Immunoreactivity was detected using horseradish peroxidase conjugated secondary antibody (Pierce, Rockford, Ill.) and the TMB soluble peroxidase substrate (Pierce, Rockford, Ill.). Absorbances were measured at 450 nm using a Spectracount plate reader. […]

The subject of a further series is p21/Waf1. Kind of series: p21/Waf1 expression, Western blot / MICE assay. Particulars: PNET2 cells induced to express AD7c-NTP, growth factor stimulated. The source says:
(§4) Standard Western blot assays wew used to measure cellular levels of p53, Bcl-2, p21/Waf1, phospho-tau, tau, c-fos, NTP, and activated (phosphorylated) forms of Erk mitogen activated protein (MAP) kinase, amino-terminal c-jun-activated kinase (pJNK), and p38/HOG1. Immunoprecipitation followed by Western blot analysis was used to measure p85 subunit associated with IRS1. For Western blot analysis of p53 Bcl-2, phospho-tau, tau, c-fos, and NTP, the cells were lysed in ice cold radioimmunoprecipitation assay (RIPA) buffer supplemented with protease and phosphatase inhibitors. […] Protein concentrations were measured using the BCA assay (Pierce, Rockford, Ill.). Samples containing 60 μg of protein were fractionated by sodium dodecyl sulfate polyacrylamide gel electrophoresis (SDS-PAGE), then transferred to PVDF membranes, and analyzed by Western immunoblotting. Immunoreactivity was detected with horseradish peroxidase conjugated secondary IgG and PicoWest enhanced chemiluminescence reagents (Pierce Chemical Company, Rockford, Ill.). CAT activity was measured using known methods.
(§5) The MICE assay is known in the art (e.g., as described by de la Monte et al., 1999, Biotechniques 26:107301076). […] Immunoreactivity was detected using horseradish peroxidase conjugated secondary antibody (Pierce, Rockford, Ill.) and the TMB soluble peroxidase substrate (Pierce, Rockford, Ill.). […]

The test system of another series is phospho-Erk MAPK. As to the kind of experiment: Growth factor stimulated phospho-Erk MAPK, Western blot. The settings on record: for phospho-Erk MAPK level, short-term stimulation: 0-30 minutes stimulation; for phospho-Erk MAPK level, 24 hours: 24 hours of AD7c-NTP induction and growth factor stimulation.
Source text: as §2
(§6) The potential mechanisms by which the differential effects of insulin, IGF1 and PDGF might occur were explored by examining pathways, which mediate PNET2 neuronal apoptosis and neuritic sprouting. […] Western blot analysis was performed with cell lysates obtained from cultures stimulated with insulin, IGF1, or PDGF for 0-30 minutes or 24 hours with equivalent protein loading (60 μg/sample). The membranes were probed using antibodies to Erk, phospho-Erk, Jun, and phospho-JNK. […] In contrast, after 24 hours of AD7c-NTP gene induction and growth factor stimulation, high levels of phospho-Erk MAPK were detected in the IGF-1 and PDGF-stimulated cultures, but not in the serum-starved or insulin-stimulated cultures. […] In contrast, the levels of c-fos transcription factor were equally expressed after 24 hours IPTG induction of AD7c-NTP expression and either serum starvation or stimulation with insulin, IGF1 or PDGF.

Another series relates to p25. Kind of series: p25 expression, Western blot / MICE assay. Particulars: PNET2 cells induced to express AD7c-NTP.
Source text: as §4, §5

The next series relates to p53. As to the kind of experiment: p53 expression, Western blot / MICE assay. Particulars: PNET2 cells induced to express AD7c-NTP, growth factor stimulated.
Source text: as §2, §3

The test system of the next series is phospho-JNK. As to the kind of experiment: Growth factor stimulated phospho-JNK, Western blot. The settings on record: for phospho-JNK level, short-term stimulation: 5-30 min stimulation.
Source text: as §2, §6

Another series deals with phospho-tau. Kind of series: phospho-tau expression, Western blot / MICE assay. The settings on record: PNET2 cells induced to express AD7c-NTP; relative to PDGF-stimulated cultures.
Source text: as §4, §5

Series [3] relates to PNET2 cells induced to express AD7c-NTP. As to the kind of experiment: Cell morphology by phase contrast microscopy. Particulars: IPTG-induced AD7c-NTP; insulin 50 nM, IGF-1 5 ng/ml, NGF 2.5 ng/ml, PDGF 5 ng/ml; 24-48 hours. On the procedure:
as §1
Cells were serum-starved for 24 hours. However, since several hours of IPTG stimulation were required to induce AD7c-NTP gene expression or CAT activity, IPTG (3 mM) was added to the cultures after 16 hours of serum-starvation, i.e. 8 hours prior to growth factor stimulation. The cells were stimulated with insulin (50 nM), IGF-1 (5 ng/ml), NGF (2.5 ng/ml), or PDGF (5 ng/ml) and examined by phase contrast microscopy 24-48 hours later. PNET2 cells could be maintained in serum-free medium for 5 to 7 days with insulin, IGF-1, NGF, or PDGF as the only growth stimulus. In addition, each of these growth factors supports DNA synthesis and promotes modest outgrowth of multipolar neurites in PNET2 cells.

In series [4] the test system is PY-PI3 kinase (total PI3 kinase). Kind of series: PI3 kinase activity in anti-phospho-tyrosine (PY) immunoprecipitates. As for the experimental part:
(§7) The cells were harvested in Triton lysis buffer supplemented with protease and phosphatase inhibitors. Total PI3K was immunoprecipitated from 500 μg protein in cell lysates using rabbit polyclonal antibodies to the p85 subunit of PI3K and Protein A sepharose. The immunoprecipitants were incubated for 5 minutes at room temperature with 10 μg of sonicated phosphatidylinositol in HEPES buffer (200 mM HEPES, 4 mM EGTA, 4 mM sodium phosphate, pH 7.0). Reactions were initiated by the addition of 5 μCi [α^32p] ATP, 15 mM MgCl2, 150 mM ATP, 1.5 mM Tris-HCl, pH 7.4, and 15 mM NaCl. After 10 minutes incubation at 30° C., the reactions were stopped by the addition of HCl to a final concentration of 1.2 N, followed by chloroform/methanol extraction. Phosphorylated lipids were analyzed by thin layer chromatography using gel plates pre-coated with 1% oxalate (Merck, White House Station, N.J.). PI3K activity was measured with a phosphorimager.
PI3 kinase is an important mediator of neuronal survival. The pro-survival effects of PI3K are mediated through activation of Akt (protein kinase B) and phosphorylation of Bad to render it inactivated. Inhibition of PI3 kinase activity is associated with PNET2 cell apoptosis. Therefore, experiments were carried out to determine if growth factor stimulated PI3 kinase activity was inhibited in insulin or IGF-1-stimulated cultures. Such inhibition has been observed following chronic ethanol exposure. Since insulin and IGF-1 can activate PI3 kinase through the insulin-receptor substrate-1 (IRS-1) or through IRS-1-independent pathways, both IRS1-associated PI3 kinase and total PI3 kinase activities were measured. These studies were conducted using insulin or PDGF stimulated cultures in which AD7c-NTP gene expression was induced by 3 mM IPTG stimulation. […] Levels of PI3 kinase activity were measured in anti-phospho-tyrosine (PY) immunoprecipitates. […] Similarly, PI3 kinase activity was readily detected in the PY immunoprecipitates prepared with cells stimulated with insulin or PDGF.

The subject of series [5] is IRS-1-associated PI3 kinase. As to the kind of experiment: IRS-1-associated PI3 kinase activity. The settings on record: 3 mM IPTG-induced cultures, 30 minutes of stimulation. As for the experimental part:
as §7, with “After 10 minutes incubation at 30° C., the reactions were stopped by the addition of HCl to a final concentration of 1.2 N, followed by chloroform/methanol extraction.” left out
PI3 kinase is an important mediator of neuronal survival. […] Since insulin and IGF-1 can activate PI3 kinase through the insulin-receptor substrate-1 (IRS-1) or through IRS-1-independent pathways, both IRS1-associated PI3 kinase and total PI3 kinase activities were measured. […] Levels of PI3 kinase activity were measured in anti-phospho-tyrosine (PY) immunoprecipitates. […] Similarly, PI3 kinase activity was readily detected in the PY immunoprecipitates prepared with cells stimulated with insulin or PDGF.

With “IGF-1: Recombinant human IGF1 purchased from Sigma”, the NOS-3 level result in [1] is on record as “increased levels”. Moreover, the “cell density (crystal violet)” value in [2] is on record as “significantly reduced cell densities”. Further, the Bcl-2 level result with Bcl-2 is listed as “intermediate levels; also recorded: reduced levels”. The p21/Waf1 level result with p21/Waf1 is listed as “significantly increased levels”. In the series with phospho-Erk MAPK, the “phospho-Erk MAPK level, short-term stimulation” value is “increased levels” and the “phospho-Erk MAPK level, 24 hours” value is reported as “high levels”. In the series with p25, the p25 level entry is on record as “significantly increased levels”. In addition, the p53 level result in the series on p53 is listed as “intermediate levels; also recorded: significantly increased levels”. In the series on phospho-JNK, the “phospho-JNK level, short-term stimulation” value is “much lower levels” and the “phospho-JNK level, 24 hour time point” value is on record as “no detectable phospho-JNK expression”. Moreover, the phospho-tau level entry in the series with phospho-tau was “increased levels”. The cell morphology entry in [3] is reported as “two populations of cells”.
With “NGF: Recombinant human NGF purchased from Sigma”, the cell morphology result in [3] is “extensive neuritic growth with multipolar fine interconnecting processes and minimal evidence of on-going cell death”.
Turning to PDGF, the Bcl-2 level entry with Bcl-2 was “high levels of Bcl-2”. In addition, in the series with phospho-Erk MAPK, the “phospho-Erk MAPK level, short-term stimulation” value is reported as “minimal effect” and the “phospho-Erk MAPK level, 24 hours” value is listed as “high levels”. In addition, the “PY-PI3 kinase activity, short-term” value in series [4] (5-30 minutes, PDGF versus insulin-stimulated cultures) was “consistently lower”. In series [4] (24 or 48 hours of stimulation), the “PY-PI3 kinase activity, 24 or 48 hours” value was “similar”. In the series with p53, the p53 level entry was “no detectable p53”. Moreover, the “IRS-1-associated PI3 kinase activity” value in series [5] is on record as “virtually undetectable”. Besides, in the series on phospho-JNK, the “phospho-JNK level, short-term stimulation” value is “much lower levels” and the “phospho-JNK level, 24 hour time point” value is given as “no detectable phospho-JNK expression”. In [3], the cell morphology entry was “extensive neuritic growth with multipolar fine interconnecting processes and minimal evidence of on-going cell death”.
